Measured values reported in ChEMBL document CHEMBL1127459, “Synthesis and biological activity of 3-[2-(dimethylamino)ethyl]-5-[(1,1-dioxo-5-methyl-1,2,5-thiadiazolidin- 2-yl)-methyl]-1H-indole and analogues: agonists for the 5-HT1D receptor” (J Med Chem, 1994).

How the values were obtained:
[1] = target: 5-HT1A receptor (Sus scrofa, UniProt A0A4X1UTF5); experiment: Displacement of [3H]8-OH-DPAT binding to 5-hydroxytryptamine 1A receptor from pig cortex
[2] = target: 5-hydroxytryptamine receptor 2A (Rattus norvegicus, UniProt P14842); experiment: Displacement of [3H]DOB binding to 5-hydroxytryptamine 2A receptor from rat cortex homogenate
Chain of 5-hydroxytryptamine receptor 2A (P14842 whole entry): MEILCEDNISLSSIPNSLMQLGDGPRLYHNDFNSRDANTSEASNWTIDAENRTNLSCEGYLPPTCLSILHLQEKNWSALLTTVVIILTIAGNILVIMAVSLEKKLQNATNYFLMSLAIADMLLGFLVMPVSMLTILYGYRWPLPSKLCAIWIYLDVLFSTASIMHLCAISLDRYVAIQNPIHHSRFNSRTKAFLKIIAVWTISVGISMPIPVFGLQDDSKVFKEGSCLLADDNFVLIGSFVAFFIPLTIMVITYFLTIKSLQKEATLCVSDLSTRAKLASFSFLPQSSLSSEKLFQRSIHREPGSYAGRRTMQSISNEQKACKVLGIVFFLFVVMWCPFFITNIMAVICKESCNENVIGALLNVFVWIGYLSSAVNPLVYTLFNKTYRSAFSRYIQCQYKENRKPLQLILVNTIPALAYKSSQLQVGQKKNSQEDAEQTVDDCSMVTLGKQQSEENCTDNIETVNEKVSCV

[3] = target: 5-hydroxytryptamine receptor 1D (Sus scrofa, UniProt P79400); experiment: Displacement of [3H]5-HT binding to 5-hydroxytryptamine 1D receptor from pig caudate membrane
Chain of 5-hydroxytryptamine receptor 1D (P79400 whole entry): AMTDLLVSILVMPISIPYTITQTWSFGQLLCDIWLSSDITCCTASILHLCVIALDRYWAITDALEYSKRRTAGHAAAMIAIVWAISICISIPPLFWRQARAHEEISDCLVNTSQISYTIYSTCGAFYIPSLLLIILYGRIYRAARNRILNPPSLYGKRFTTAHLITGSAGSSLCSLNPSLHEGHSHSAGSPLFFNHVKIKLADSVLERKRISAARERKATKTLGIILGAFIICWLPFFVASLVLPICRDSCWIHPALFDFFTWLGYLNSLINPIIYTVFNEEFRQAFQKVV

[4] = Partition coefficient at pH 7.4; assay type: physicochemical; settings: octanol/water
[5] = organism: Oryctolagus cuniculus; experiment: Ability to contract saphenous vein of New Zealand white rabbit; assay type: functional
[6] = target: T1, Serotonin 3 (5-HT3) receptor (Rattus norvegicus, UniProt P35563+Q9JJ16); experiment: Displacement of [3H]-Q-ICS 205-930 binding to 5-hydroxytryptamine 3 receptor from rat cortex homogenate
T1 sequence (P35563 whole entry): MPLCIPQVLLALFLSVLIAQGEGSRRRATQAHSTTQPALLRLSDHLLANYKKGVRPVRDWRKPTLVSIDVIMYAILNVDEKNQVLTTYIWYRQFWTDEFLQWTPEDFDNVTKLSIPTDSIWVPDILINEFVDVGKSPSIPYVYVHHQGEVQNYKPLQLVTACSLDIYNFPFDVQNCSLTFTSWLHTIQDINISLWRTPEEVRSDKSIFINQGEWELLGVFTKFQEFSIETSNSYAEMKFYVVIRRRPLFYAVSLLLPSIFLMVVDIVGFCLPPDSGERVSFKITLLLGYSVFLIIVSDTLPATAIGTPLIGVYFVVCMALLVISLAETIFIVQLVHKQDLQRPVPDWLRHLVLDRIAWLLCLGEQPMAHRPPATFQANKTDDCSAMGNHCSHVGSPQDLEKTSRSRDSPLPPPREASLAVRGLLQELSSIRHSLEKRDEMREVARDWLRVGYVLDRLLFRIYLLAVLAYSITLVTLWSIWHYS
T1 sequence (Q9JJ16 whole entry): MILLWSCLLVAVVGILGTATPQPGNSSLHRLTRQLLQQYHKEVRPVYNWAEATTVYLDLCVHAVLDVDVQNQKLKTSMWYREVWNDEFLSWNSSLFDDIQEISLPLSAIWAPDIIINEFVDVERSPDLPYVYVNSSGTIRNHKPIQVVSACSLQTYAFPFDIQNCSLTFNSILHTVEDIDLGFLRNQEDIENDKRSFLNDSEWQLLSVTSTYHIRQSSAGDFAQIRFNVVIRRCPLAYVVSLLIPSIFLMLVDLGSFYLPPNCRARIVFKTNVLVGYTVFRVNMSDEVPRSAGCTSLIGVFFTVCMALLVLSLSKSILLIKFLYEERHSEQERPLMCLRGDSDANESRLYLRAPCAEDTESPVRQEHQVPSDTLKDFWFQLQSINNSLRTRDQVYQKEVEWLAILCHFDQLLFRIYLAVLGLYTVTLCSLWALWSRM

[7] = organism: Oryctolagus cuniculus; experiment: Ability to contract saphenous vein of New Zealand white rabbit.; assay type: functional

SMILES	IC50 [1]	IC50 [2]	IC50 [3]	logD [4]	EC50 [5]	IC50 [6]	EC50 [7]
CN(C)CCc1c[nH]c2ccc(N3CCN(C)S3(=O)=O)cc12	631 nM	> 10000 nM	100 nM	-0.92	3160 nM		
CNS(=O)(=O)Cc1ccc2[nH]cc(CCN(C)C)c2c1	501 nM					> 10000 nM	
CN(C)CCc1c[nH]c2ccc(CCN3CCNS3(=O)=O)cc12	126 nM	5010 nM	39.8 nM				
CN(C)CCc1c[nH]c2ccc(CN3CCN(C)S3(=O)=O)cc12	794 nM	> 10000 nM	63.1 nM	-0.68	631 nM	> 10000 nM	
CN(C)CCc1c[nH]c2ccc(CN3CCCN(C)S3(=O)=O)cc12	126 nM	> 10000 nM	63.1 nM	-0.02		> 10000 nM	2510 nM
CCN1CCN(CCc2ccc3[nH]cc(CCN(C)C)c3c2)S1(=O)=O	126 nM	2000 nM	39.8 nM		1580 nM		
CNCCc1c[nH]c2ccc(CN3CCN(C)S3(=O)=O)cc12	794 nM	> 10000 nM	100 nM	-1.71			2000 nM
CN(C)CCc1c[nH]c2ccc(CN3CCNS3(=O)=O)cc12	794 nM	> 10000 nM	100 nM	-0.97	2510 nM		
CN(C)CCc1c[nH]c2ccc(CN3C(C)(C)CNS3(=O)=O)cc12	1000 nM	> 10000 nM	200 nM	-0.78			6310 nM
CN1CCN(Cc2ccc3[nH]cc(CCN)c3c2)S1(=O)=O	631 nM	> 10000 nM	316 nM				
CN(C)CCc1c[nH]c2ccc(CCN3CCN(C)S3(=O)=O)cc12	200 nM	2510 nM	39.8 nM	-0.57			1580 nM
CN(C)CCc1c[nH]c2ccc(CN3CC(C)(C)NS3(=O)=O)cc12	251 nM	> 10000 nM	100 nM	-0.39			2510 nM
CC(=O)Nc1ccc(CN2CCN(Cc3ccc4[nH]cc(CCN(C)C)c4c3)S2(=O)=O)cc1	200 nM	7940 nM	20 nM	0.42			501 nM
CN1CCN(Cc2ccc3scc(CCN)c3c2)S1(=O)=O	2000 nM	2000 nM	398 nM		12600 nM		
CC(C)N1CCN(Cc2ccc3[nH]cc(CCN(C)C)c3c2)S1(=O)=O	501 nM	> 10000 nM	100 nM	0.16			
CN(C)CCc1c[nH]c2ccc(N3CCN(Cc4ccccc4)S3(=O)=O)cc12	79.4 nM	5010 nM	20 nM				
